Results from US20250002471A1 (Gilead Sciences, Inc., priority 2020, published 2025).
pEC50, pIC50: −log10 of the molar value. Like-named read-outs stand apart in the source and are kept apart here.

Key:
[1] = target: T1, TLR7 (Homo sapiens, UniProt Q9NYK1); test: Human PBMC cell-based assay, TLR7 agonist GS-986 stimulation, cytokine (IL-6 and IFNα) readout; conditions: human PBMCs, read-out: TLR-7 EC50
T1 construct: lymphocytes, monocytes and dendritic cells that express TLR7, TLR8 and TLR9; endogenous in cells; host or cells: human PBMCs from healthy donors
T1 sequence (Q9NYK1 27-1049): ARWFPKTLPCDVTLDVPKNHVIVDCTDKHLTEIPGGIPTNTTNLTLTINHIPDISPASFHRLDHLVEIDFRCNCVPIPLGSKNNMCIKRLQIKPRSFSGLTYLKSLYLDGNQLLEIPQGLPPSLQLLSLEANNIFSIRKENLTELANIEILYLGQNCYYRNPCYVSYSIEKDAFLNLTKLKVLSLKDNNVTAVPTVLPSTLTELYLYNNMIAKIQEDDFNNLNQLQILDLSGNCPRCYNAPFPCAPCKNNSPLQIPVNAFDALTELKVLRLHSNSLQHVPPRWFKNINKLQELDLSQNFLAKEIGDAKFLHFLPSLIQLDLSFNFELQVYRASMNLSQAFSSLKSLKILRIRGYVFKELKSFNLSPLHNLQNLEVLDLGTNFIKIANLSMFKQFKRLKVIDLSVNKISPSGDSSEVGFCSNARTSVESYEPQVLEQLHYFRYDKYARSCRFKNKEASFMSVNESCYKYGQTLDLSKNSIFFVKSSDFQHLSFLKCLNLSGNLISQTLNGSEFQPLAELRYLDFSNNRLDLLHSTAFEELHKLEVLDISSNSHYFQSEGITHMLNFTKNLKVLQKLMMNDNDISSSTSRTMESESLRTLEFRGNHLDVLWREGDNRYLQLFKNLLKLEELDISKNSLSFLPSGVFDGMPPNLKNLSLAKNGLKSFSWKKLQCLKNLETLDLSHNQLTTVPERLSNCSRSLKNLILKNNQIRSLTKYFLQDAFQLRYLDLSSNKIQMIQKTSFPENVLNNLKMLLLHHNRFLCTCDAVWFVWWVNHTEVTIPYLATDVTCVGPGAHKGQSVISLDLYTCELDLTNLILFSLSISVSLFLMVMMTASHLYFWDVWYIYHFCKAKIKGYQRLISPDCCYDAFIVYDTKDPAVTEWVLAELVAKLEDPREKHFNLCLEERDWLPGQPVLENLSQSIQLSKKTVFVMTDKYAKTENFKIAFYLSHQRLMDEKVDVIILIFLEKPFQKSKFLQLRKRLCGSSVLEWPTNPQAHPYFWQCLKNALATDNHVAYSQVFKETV
Procedure, shortened: (§1)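 Cryopreserved healthy-donor PBMCs (100,000 cells/well, RPMI-1640 + 10% FBS) preincubated 1 h at 37 °C with antagonist (10-point dose response), then stimulated 6 h with GS-986 (400 nM final, TLR7) or ODN-2216 (3 μM final, TLR9). Supernatant IL-6 and IFNα measured by electrochemiluminescence immunoassay; EC50 from sigmoidal fit.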

[2] = target: T2, TLR9 (Homo sapiens, UniProt Q9NR96); test: Human PBMC cell-based assay, TLR9 agonist ODN-2216 stimulation, cytokine (IL-6 and IFNα) readout; conditions: human PBMCs, read-out: TLR-9 EC50
T2 construct: lymphocytes, monocytes and dendritic cells that express TLR7, TLR8 and TLR9; endogenous in cells; host or cells: human PBMCs from healthy donors
T2 sequence (Q9NR96 26-1032): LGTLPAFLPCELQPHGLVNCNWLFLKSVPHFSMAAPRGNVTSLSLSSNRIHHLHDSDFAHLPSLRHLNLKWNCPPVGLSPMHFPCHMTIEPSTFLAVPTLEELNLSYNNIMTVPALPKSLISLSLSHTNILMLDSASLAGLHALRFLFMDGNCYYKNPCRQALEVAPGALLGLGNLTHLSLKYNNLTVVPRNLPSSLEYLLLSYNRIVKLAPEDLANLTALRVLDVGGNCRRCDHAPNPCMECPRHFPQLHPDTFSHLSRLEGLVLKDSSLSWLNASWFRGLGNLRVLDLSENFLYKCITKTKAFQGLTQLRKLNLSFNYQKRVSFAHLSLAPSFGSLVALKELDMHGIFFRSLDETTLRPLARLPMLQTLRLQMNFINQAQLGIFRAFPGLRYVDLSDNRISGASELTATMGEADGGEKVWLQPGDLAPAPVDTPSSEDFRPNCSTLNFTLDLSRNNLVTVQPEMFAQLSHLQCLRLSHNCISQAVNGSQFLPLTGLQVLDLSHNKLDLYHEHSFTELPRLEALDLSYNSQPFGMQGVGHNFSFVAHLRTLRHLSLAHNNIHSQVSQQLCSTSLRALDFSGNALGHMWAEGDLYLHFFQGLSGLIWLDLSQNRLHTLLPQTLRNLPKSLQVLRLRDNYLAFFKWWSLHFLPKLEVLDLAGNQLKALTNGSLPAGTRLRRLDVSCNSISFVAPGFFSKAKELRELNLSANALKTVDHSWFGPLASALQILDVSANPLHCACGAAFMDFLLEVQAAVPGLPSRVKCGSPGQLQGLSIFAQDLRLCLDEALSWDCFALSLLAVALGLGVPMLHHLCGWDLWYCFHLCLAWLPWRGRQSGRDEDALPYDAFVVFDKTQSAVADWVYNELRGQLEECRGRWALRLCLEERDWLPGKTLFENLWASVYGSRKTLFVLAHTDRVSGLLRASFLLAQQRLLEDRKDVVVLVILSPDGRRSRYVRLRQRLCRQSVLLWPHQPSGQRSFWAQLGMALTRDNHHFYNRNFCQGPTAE
Procedure, shortened: as §1

[3] = target: cloned hERG potassium channel encoded by the KCNH2 gene (Homo sapiens, UniProt Q12809); test: hERG FASTPatch assay (QPatch patch clamp, HEK293T cells); assay type: cell-based; conditions: HEK293T cells, 1, 3, 10 and 30 uM, room temperature; Table 27
Experimental: The FASTPatch® Assay (Charles River) was used to examine the in vitro effects of the compounds provided herein on the cloned hERG potassium channel encoded by the KCNH2 gene and stably expressed in HEK293T cells. Vehicle, test and control article formulations were prepared by diluting DMSO stock solutions in HB-PS (HEPES-buffered physiological saline solution) and were delivered to cells via the QPatch robot pipetting system to a final concentration of 0.3% DMSO. Test compound final concentrations of 1, 3, 10 and 30 uM were applied to cells (n >3, where n=the number of cells/concentration) in ascending order in at least three minute intervals separated by solution exchange. The positive control, 50 nM cisparide, was applied in the same manner. Cell membrane currents were recorded at room temperature with up to 48 parallel patch clamp amplifiers in the QPatch HT® or QPatch HTX® system, and only cells with validated whole-cell recordings (seal resistance >200 MQ and leak current <25% channel current) were used. Onset and block of hERG current was measured using a stimulus voltage pattern consisting of a 500 ms prepulse to −40 mV, a 2-second activating pulse to +40 mV, followed by a 2-second test pulse to −40 mV. The pulse pattern was repeated continuously at 10-second intervals from a holding potential of −80 mV. % Block={1-1/[1+([Test]/IC50)^N]}*100% Where [Test] is the concentration of test article, IC50 is the concentration of the test article producing half-maximal inhibition, N is the Hill coefficient and % Block is the percentage of current inhibited at each concentration of the test article. Nonlinear least squares fits will be solved with the Solver add-in for Excel 2000 or later (Microsoft, Redmon, WA). TurboSol analysis for test compound solubility was performed for each concentration tested using a Nephelostar reader measuring light scatter from a 635 nm laser source. Based on validation experiments, light scatter above four times the background level was considered an indication of the presence of particles in suspension.

[4] = GS-986 400 nM, 6 hours, Table 26
[5] = ODN-2216 3 μM, 6 hours, Table 26

cloned hERG potassium channel encoded by the KCNH2 gene, sequence (Q12809 whole entry): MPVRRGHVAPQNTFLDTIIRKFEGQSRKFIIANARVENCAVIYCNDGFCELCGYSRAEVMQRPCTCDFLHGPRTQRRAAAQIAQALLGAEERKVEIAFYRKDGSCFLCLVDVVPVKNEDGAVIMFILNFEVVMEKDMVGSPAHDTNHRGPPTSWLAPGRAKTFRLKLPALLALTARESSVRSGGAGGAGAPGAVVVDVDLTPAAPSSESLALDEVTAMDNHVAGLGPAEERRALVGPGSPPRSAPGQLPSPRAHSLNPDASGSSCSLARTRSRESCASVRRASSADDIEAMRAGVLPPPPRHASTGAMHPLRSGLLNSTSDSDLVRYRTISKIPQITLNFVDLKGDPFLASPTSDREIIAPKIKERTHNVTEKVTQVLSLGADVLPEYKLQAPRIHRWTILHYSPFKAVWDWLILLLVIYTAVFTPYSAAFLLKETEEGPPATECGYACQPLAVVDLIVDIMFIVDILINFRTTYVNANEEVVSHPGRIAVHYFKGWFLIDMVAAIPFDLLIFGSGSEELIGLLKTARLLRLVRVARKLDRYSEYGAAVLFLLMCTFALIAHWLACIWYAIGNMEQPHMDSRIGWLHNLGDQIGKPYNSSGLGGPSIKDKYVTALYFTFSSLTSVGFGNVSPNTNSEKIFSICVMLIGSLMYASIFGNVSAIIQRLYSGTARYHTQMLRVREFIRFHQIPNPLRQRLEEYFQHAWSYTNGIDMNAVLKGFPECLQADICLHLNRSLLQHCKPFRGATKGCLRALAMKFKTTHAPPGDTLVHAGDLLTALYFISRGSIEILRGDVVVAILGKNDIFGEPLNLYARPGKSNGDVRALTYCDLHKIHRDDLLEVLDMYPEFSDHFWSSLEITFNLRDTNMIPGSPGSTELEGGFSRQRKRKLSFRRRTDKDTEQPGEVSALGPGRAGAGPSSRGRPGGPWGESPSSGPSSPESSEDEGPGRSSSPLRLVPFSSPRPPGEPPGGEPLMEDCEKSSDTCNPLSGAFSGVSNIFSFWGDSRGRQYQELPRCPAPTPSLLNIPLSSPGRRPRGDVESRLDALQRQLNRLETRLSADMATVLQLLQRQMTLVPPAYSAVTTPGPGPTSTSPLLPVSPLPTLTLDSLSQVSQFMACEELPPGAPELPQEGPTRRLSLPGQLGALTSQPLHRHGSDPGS

pEC50 [1, 4]	pEC50 [2, 5]	pEC50 ([1]; Table 27 comparison)	pEC50 ([2]; Table 27 comparison)	SMILES	pIC50 [3]
7.77	7.54	–	–	Cc1cc(-c2[nH]c3cc(-c4ccc(N5CCC(C)(N)CC5)nc4)ccc3c2C)cc(C)n1 [Example 23]	4.73
–	–	7.92	6.60	Cc1cc(-c2[nH]c3ccc(-c4ccc(N5CCC(C)(N)CC5)nc4)cc3c2C(C)C)cc(C)n1 [Example D, reference compound]	5.11

Second part, the molecule before the results:

SMILES	pEC50 [1, 4]	pEC50 [2, 5]	pEC50 ([1]; Table 27 comparison)	pEC50 ([2]; Table 27 comparison)	pIC50 [3]
Cc1cc(-c2[nH]c3cc(-c4ccnc(N5CCNCC5)c4)ccc3c2C)cc(C)n1 [Example 64]	6.50	6.87	–	–	4.69
Cc1cc(-c2[nH]c3ccc(-c4ccnc(N5CCNCC5)c4)cc3c2C(C)C)cc(C)n1 [Example B, reference compound]	–	–	8.11	6.55	5.68
Cc1cc(-c2[nH]c3ccc(C4CCCNC4)cc3c2C(C)C)cc(C)n1 (stereo not drawn) [Example C, reference compound]	–	–	8.64	6.23	4.96
